In US20200038514A1, “FOLATE CONJUGATE FOR USE IN TARGETING TUMOR ASSOCIATED MACROPHAGES” (ENDOCYTE, INC., priority 2016, published 2020):

Key:
[1] = test system: ST502 TNBC PDX tumors; experiment: In vivo activity against triple negative breast tumors (FIG. 5); parameters: species or system mice
Experimental: (§1) Mice were maintained and tumor volumes were measures according to Method 3.
(§2) Primary human TNBC model ST502 (2-4 mm in diameter) or primary human TNBC model ST738 (2-4 mm in diameter) were inoculated subcutaneously at the right flank of each mouse. Mice were randomized into experimental groups of 7 mice each and test articles were injected through the lateral tail vein under sterile conditions in a volume of […] of phosphate-buffered saline (PBS).

[2] = test system: ID8-C115 ascites tumors; experiment: Conjugate 5 versus EC1456 against various stages of ID8-C115 ascites tumors, survival; format: in vivo, mice
From the text: Mouse ascites tumors were generated by intra-peritoneal implantation of cultured cells at 5×10^6 in C57BL/6 mice.
In a first experiment (P-1836), all treatment started 7 days after the tumors were implanted. The mice were intravenously dosed with Conjugate 5 at 0.1 μmol/kg twice-per-week for a total of 6 doses (BIW×3). […] In a second experiment (P-1846), Conjugate 5 treatment started 21 days after the tumors were implanted. The mice were intravenously dosed with Conjugate 5 at 0.1 μmol/kg for 3 consecutive days each week for 3 weeks (D0-2×3, 9 doses). […] In a third experiment (P-1861), Conjugate 5 treatment started 35 days after the tumors were implanted. The mice were intravenously dosed with Conjugate 5 at 0.3 μmol/kg once-a-week for 2 consecutive weeks (SIW×2, 2 doses). […] In a fourth experiment (P-1836), Conjugate 5 treatment started 43 days after the tumors were implanted. The mice were intravenously dosed with Conjugate 5 at 0.3 μmol/kg once-a-week for 2 consecutive weeks (SIW×2, 2 doses). […] All mice were weighed 3 times/week and assessed for any clinical sign of swollen bellies indicative of ascites formation and for evidence of toxicity including respiratory distress, mobility, weight loss, diarrhea, hunched posture, and failure to eat. Once the animals developed ascites, they were monitored daily and euthanized when ascites became severe (rounded and walking on tip toes).

[3] = test system: 4T1-C12 tumor cells; experiment: XTT cell viability assay, 4T1-C12; format: cell-based, mouse; conditions: FRα-positive 4T1-C12, 2 hours exposure, 96 hour chase
Experimental: (§3) The FRα− and FRα+ expressing cell lines utilized to evaluate Conjugate 5 activity in-vitro and/or ex-vivo studies were (1) 4T1p, a mouse breast cancer cell line that resembles triple negative breast cancer in humans, (2) 4T1-C12, 4T1p stably transfected with a mouse FRa, and (3) IGROV1, a human ovarian carcinoma cell line that expresses the human FRα. 4T1p and 4T1-C12 cells were grown respectively in a folate-replete or folate-free RPMI1640 medium (Gibco BRL) (FFRPMI) containing 10% heat-inactivated fetal calf serum (HIFCS) and antibiotics, and maintained under a 5% CO2 atmosphere using standard cell culture techniques. IGROV1 cells were grown in the same medium as 4T1-C12.
(§4) 4T1p and 4T1-C12 tumor cells in 96-well plates (20,000 cells/well) were treated with 10-fold serial dilutions of Conjugate 5 (100 nM) in FFRPMI medium. After a 2 hour exposure, the drug-containing media were replaced and the cells were washed and allowed to incubate further for 96 hours. The cell viability was assessed by adding XTT (2,3-bis(2-methoxy-4-nitro-5-sulfo-phenyl)-2H-tetrazolium-5-carboxanilide) to the culture medium for 2 hours following the manufacturer's instructions. All results were expressed as % absorbance (minus background) relative to the untreated control cells.

[4] = test system: Calf thymus DNA (CT-DNA); experiment: DNA crosslinking assay (ethidium bromide fluorescence); format: biochemical; conditions: 1.1 to 75 μM, 37° C. 2 hours
Experimental: Calf thymus DNA (CT-DNA) was combined with increasing concentrations of Conjugate 5 (1.1 to 75 μM) or Conjugate 5+/−DTT. These solutions were incubated at 37° C. for 2 hours. The solutions were then mixed with ethidium bromide and incubated for 2 hours at room temperature. Fluorescence (Ex: 535 nm, Em: 605 nm) from these samples was measured on the Fluoroskan II fluorimeter. Next, the samples were heated to 104° C. for 5 minutes, cooled on ice for 5 minutes, kept at RT for 15 minutes and fluorescence measured. % crosslinking of each sample was calculated using the fluorescence values from the positive and negative controls.

[5] = test system: KB tumor; experiment: In vivo activity against KB tumors in mice; conditions: 0.5 μmol/kg once a week for two weeks
From the text: Treatment with 0.5 μmol/kg of Conjugate 5, once a week for two weeks also produced maximal anti-tumor activity with 100% cures. Change in weight is shown in FIG. 2B for test mice dosed at 0.5 μmol/kg Conjugate 5 SIW for two weeks (▴) compared to untreated control (▪).

[6] = test system: 4T1p tumor cells; experiment: XTT cell viability assay, 4T1p; format: cell-based, mouse; conditions: 2 hours exposure up to 100 nM, 96 hour chase
Experimental: as §3, §4

[7] = test system: 4T1-C12 tumor (FRα-positive); experiment: Single-agent activity in vivo, 4T1-C12 mammary tumors; parameters: species or system mice; conditions: 0.2 μmol/kg i.v., BIW×4 doses
From the text: Female Balb/c mice (4T1p, 4T1-C12) were purchased from Envigo (Indianapolis, Ind.) and used when they reached 6-8 weeks of age. The mice were fed a folate-deficient diet (TestDiet, St. Louis, Mo.) on the day of arrival.
Solid tumors in Balb/c mice were generated by subcutaneous implantation of cultured cells at 5×10^5 (4T1p) and 2×10^6 (4T1-C12) per animal in the mammary region.
Starting on day 0, mice with mammary 4T1p (˜78.3±12.1 mm^3) and 4T1-C12 (˜70.1±14.1 mm^3) were scheduled to receive Conjugate 5 at 200 nmol/kg, biweekly for two weeks. 4T1p tumor bearing mice received a total of 3 doses only and 4T1-C12 tumor bearing mice received a total of 4 doses as planned. Mice were weighed and measured for tumor size 3 times a week. The tumor volumes were calculated by the following formula: V=0.5×a×b^2, where a is the longest axis across the tumor, and b is the shorter axis perpendicular to a. The animals were euthanized when the tumor volume reached ˜1500 mm^3. Mice were also monitored closely for the evidence of toxicity such as respiratory distress, mobility, weight loss, diarrhea, hunched posture, and failure to eat. The last Conjugate 5 dose in the 4T1p tumor-bearing mice was skipped due to weight loss.

[8] = target: T1, folate receptor (Homo sapiens, UniProt P15328); experiment: Relative affinity assay ([3H]FA displacement on KB cells); format: binding
T1 construct: FR-positive KB cells were seeded in 24-well Falcon plates and allowed to form adherent monolayers; endogenous in cells; host or cells: KB cells
Experimental: FR-positive KB cells were seeded in 24-well Falcon plates and allowed to form adherent monolayers (>90% confluent) overnight in FFRPMI/HIFCS. Spent incubation medium was replaced with FFRPMI supplemented with 10% HIFCS and containing 100 nmol/L of [^3H]FA in the absence and presence of increasing concentrations of unlabeled FA or the test conjugate. Cells were incubated for 1 hour at 37° C. and then rinsed thrice with 0.5 mL PBS. Five hundred microliters of 1% SDS in PBS were added to each well; after 5 min, cell lysates were collected, transferred to individual vials containing 5 mL of scintillation cocktail, and then counted for radioactivity.
Cells exposed to only the [^3H]FA in FFRPMI (no competitor) were designated as negative controls, whereas cells exposed to the [^3H]FA plus 1 mmol/L unlabeled FA served as positive controls. Disintegrations per minute (DPM) measured in the latter samples (representing nonspecific binding of label) were subtracted from the DPM values from all samples.

[9] = test system: TNBC PDX tumor; experiment: In vivo activity against triple negative breast tumors (FIG. 10); parameters: species or system mice; conditions: Conjugate 5 0.27 μmol/kg BIW two weeks; erubulin mesylate 1.0 μmol/kg SIW two weeks
Experimental: as §1, §2

T1 sequence (P15328 25-234): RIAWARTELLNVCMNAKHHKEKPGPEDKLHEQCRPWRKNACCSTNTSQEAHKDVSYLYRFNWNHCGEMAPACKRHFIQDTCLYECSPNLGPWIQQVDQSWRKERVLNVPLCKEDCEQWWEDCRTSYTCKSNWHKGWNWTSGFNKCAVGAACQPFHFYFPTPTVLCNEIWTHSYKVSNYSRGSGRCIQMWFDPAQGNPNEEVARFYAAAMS

For `C=C1C[C@H]2C=Nc3cc(OCCCCCOc4cc(N)c(C(=O)N5CC(=C)C[C@H]5C5OCCN5C(=O)OCC(C)(C)SSCCC(=O)NCCNC(=O)CCOCCOCCOCCOCCNC(=O)CCN5C(=O)CC(SC[C@H](NC(=O)[C@H](CC(=O)O)NC(=O)[C@H](CC(=O)O)NC(=O)[C@H](CCCNC(=N)N)NC(=O)[C@H](CC(=O)O)NC(=O)CC[C@H](NC(=O)c6ccc(NCc7cnc8nc(N)[nH]c(=O)c8n7)cc6)C(=O)O)C(=O)O)C5=O)cc4OC)c(OC)cc3C(=O)N2C1` (stereo partly shown) [Conjugate 5], the “cure (number of mice)” value ([1]; 0.3 μmol/kg BIW for two weeks, n=7) was 7, the “TNBC PDX tumor size compared to untreated control” value ([1]; Conjugate 5 0.3 μmol/kg BIW two weeks, EC1456 2.0 μmol/kg BIW two weeks) was “decreased TNBC PDX tumor size” and the median survival time ([2]; 7-day-old tumors, Conjugate 5 0.1 mol/kg BIW×6 doses, EC1456 2 mol/kg BIW×6 doses, untreated ~46 days) was ~77 days post tumor implant. The toxicity observed ([2]; 21-day-old tumors, Conjugate 5 0.1 mol/kg D0-2×3, 9 doses, EC1456 2 μmol/kg D0-2×, 9 doses) was “mild ataxia”, the median survival time ([2]; 21-day-old tumors, Conjugate 5 0.1 mol/kg D0-2×3, 9 doses, EC1456 2 μmol/kg D0-2×, 9 doses (two remaining animals), untreated ~46 days) was ~76 days and the median survival time ([2]; 35-day-old tumors, Conjugate 5 0.3 μmol/kg SIW×2, 2 doses, EC1456 2 mol/kg D0-2×2, 4 doses, untreated ~42 days) was ~64 days post tumor implant. For the same molecule, the median survival time ([2]; 43-day-old tumors, Conjugate 5 0.3 μmol/kg SIW×2, 2 doses, EC1456 2 mol/kg D0-2×1, 3 doses, untreated ~46 days) was ~57 days post tumor implant, the “activity in the presence of excess folic acid” value ([3]; excess folic acid) was “partially reversible” and the IC50 ([3]; read-out: relative IC50, inhibition of cell proliferation) was ~8.7 nM. The “DNA crosslinking, reduced form” value ([4]; treated with DTT) was “can then crosslink with DNA”, the “DNA crosslinking, intact conjugate” value ([4]; without DTT) was “not able to crosslink DNA” and the cures [5] was 100%. The “activity against FRα-negative 4T1p tumor cell in-vitro” value [6] was “completely inactive”, the body weight [7] was “significant weight loss” and the “relative binding affinity toward the folate receptor, fold lower than that of folic acid” value [8] was ~1.9 fold. The “TNBC PDX tumor size compared to untreated control” value [9] was “decreased TNBC PDX tumor size”.
